# Experiment: logP determination by HPLC on a reverse phase column (C18), EEC Directive 79/831 Annex V.A8
# Format: physicochemical
# Settings: HPLC C18, 43° C.; for logP (pH 2.3): Table 1; for chromatographic logP: reverse phase HPLC column (C18), pH 2.3
# Description: The specified logP values are determined by HPLC on a reverse phase column (C18) in accordance with EEC Directive 79/831 Annex V.A8. Temperature: 43° C. Eluents for the measurement in the acid range (pH 2.3): 0.1% aqueous phosphoric acid, acetonitrile; linearer gradient of 10% acetonitrile to 90% acetonitrile. Calibration is performed with unbranched alkyl-2-ones (with 3 to 16 carbon atoms) with known logP values (determination of the logP values based on retention times by linear interpolation between two sequential alkyl ketones).
SMILES,logP (pH 2.3),chromatographic logP
CC(C)SCc1ccccc1NC(=O)c1cn(C)nc1C(F)F [compound 38],2.76,–
CC(SC1CCCC1)c1ccccc1NC(=O)c1cn(C)nc1C(F)F (stereo not drawn) [compound 101],3.48,–
CCC(C)SC(C)c1ccccc1NC(=O)c1cn(C)cc1C(F)(F)F (stereo not drawn) [compound 88],3.92,–
CCC(C)SC(C)c1ccccc1NC(=O)c1cn(C)nc1C(F)(F)F (mixture of isomers) [compound 45],4.14,–
O=C(Nc1ccccc1COC(=O)C(Cl)Cl)c1cccnc1Cl [compound 58],2.38,–
Cc1nc(C(F)(F)F)c(C(=O)Nc2ccccc2C(C)SC2CCCC2)s1 (stereo not drawn) [compound 94],4.24,–
CCCC(C)SC(C)c1ccccc1NC(=O)C1=C(C(F)(F)F)OCCS1 (racemic) [compound 110],4.49,–
CC(C)SC(C)c1ccccc1NC(=O)c1ccccc1I (racemic) [compound 27],3.91,–
Cc1sccc1C(=O)Nc1ccccc1C(C)SC(C)C (stereo not drawn) [compound 20],4.03,–
Cc1ccccc1C(=O)Nc1ccccc1C(C)SC1CCCC1 (stereo not drawn) [compound 99],4.44,–
Cc1nn(C)c(F)c1C(=O)Nc1ccccc1C(C)SC(C)C (stereo not drawn) [compound 19],2.98,–
CC(C)S(=O)(=O)C(C)c1ccccc1NC(=O)C1=C(C(F)(F)F)OCCS1 (stereo not drawn) [compound 10],2.39,–
"CC(C)SCc1ccccc1N [III-3, 2-[1-(isopropylthio)methyl]aniline]",–,1.94
CC(C)SCc1ccccc1NC(=O)c1cn(C)nc1C(F)(F)F [compound 36],3.05,–
CCCC(C)SC(C)c1ccccc1NC(=O)c1ccccc1C (racemic) [compound 112],4.76,–
Cc1nn(C)cc1C(=O)Nc1ccccc1C(C)S(=O)(=O)C(C)C (stereo not drawn) [compound 14],1.46,–
CC(C)S(=O)(=O)C(C)c1ccccc1NC(=O)c1ccccc1Cl (stereo not drawn) [compound 12],2.23,–
CC(SC1CCCC1)c1ccccc1NC(=O)c1cn(C)nc1C(F)(F)F (stereo not drawn) [compound 96],3.76,–
CC(C)S(=O)(=O)C(C)c1ccccc1NC(=O)c1ccccc1C(F)(F)F (stereo not drawn) [Compound No. 6],2.53,–
"CC(O)c1ccccc1[N+](=O)[O-] (stereo not drawn) [XI-1, 1-(2-nitrophenyl)ethanol]",–,1.49
CC(C)OC(C)c1ccccc1NC(=O)C1=C(C(F)(F)F)OCCS1 (stereo not drawn) [compound 137],3.64,–

SMILES,logP (pH 2.3),chromatographic logP
CC(C)OC(C)c1ccccc1NC(=O)c1cn(C)nc1I (stereo not drawn) [compound 129],2.75,–
CC(C)OC(C)c1ccccc1NC(=O)c1cn(C)nc1C(F)(F)F (stereo not drawn) [compound 127],3.14,–
CC(C)SC(C)c1ccccc1NC(=O)C1=C(C(F)(F)F)OCCS1 (racemic) [compound 30],3.76,–
CC(C)OC(C)c1ccccc1NC(=O)c1ccccc1I (stereo not drawn) [compound 130],3.83,–
COC(C)c1ccccc1NC(=O)c1cn(C)nc1C(F)(F)F (racemic) [compound 32],2.46,–
CCCC(C)SC(C)c1ccccc1NC(=O)c1ccoc1C (stereo not drawn) [compound 77],4.61,–
CC(SC1CCCC1)c1ccccc1NC(=O)c1ccccc1Br (stereo not drawn) [compound 93],4.34,–
CCC(C)SC(C)c1ccccc1NC(=O)c1ccccc1Cl (stereo not drawn) [compound 73],4.17,–
CCCC(C)SC(C)c1ccccc1NC(=O)c1sc(C)nc1C(F)(F)F (mixture of isomers) [compound 44],4.52,–
Cn1cc(C(=O)Nc2ccccc2CCO[Si](C)(C)C(C)(C)C)c(C(F)(F)F)n1 [compound 65],4.59,–
CC(C)SC(C)c1ccccc1NC(=O)c1cn(C)nc1C(F)F (racemic) [compound 28],3.01,–
CCCC(C)SC(C)c1ccccc1NC(=O)C1=C(C)OCCS1 (stereo not drawn) [compound 87],4.53,–
CCCC(C)SC(C)c1ccccc1NC(=O)c1cn(C)nc1C(F)F (stereo not drawn) [compound 85],3.76,–
Cc1nn(C)cc1C(=O)Nc1ccccc1C(C)SC1CCCC1 (stereo not drawn) [compound 95],3.04,–
Cn1cc(C(=O)Nc2ccccc2CO)c(C(F)(F)F)n1 [compound 178],1.61,–
CCC(C)SC(C)c1ccccc1NC(=O)C1=C(C)OCCS1 (stereo not drawn) [compound 86],4.07,–
Cc1nc(C(F)F)c(C(=O)Nc2ccccc2C(C)SC(C)C)s1 (racemic) [compound 29],3.55,–
CCC(C)SC(C)c1ccccc1NC(=O)c1ccccc1C(F)(F)F (stereo not drawn) [compound 75],4.31,–
Cc1nc(C(F)(F)F)c(C(=O)Nc2ccccc2C(C)SC(C)C)s1 (stereo not drawn) [compound 25],3.73,–
CC(C)C(=O)OCc1ccccc1N(C(=O)c1cccnc1Cl)C(=O)C(C)C [compound 59],3.49,–
Cc1nn(C)c(F)c1C(=O)Nc1ccccc1COC(=O)C(C)C [compound 51],2.39,–

SMILES,logP (pH 2.3),chromatographic logP
CCCC(C)SC(C)c1ccccc1NC(=O)c1c(C)nn(C)c1Cl (racemic) [compound 113],4.07,–
COC(C)c1ccccc1NC(=O)c1c(C)nn(C)c1F (racemic) [compound 31],2.17,–
Cc1nn(C)c(F)c1C(=O)Nc1ccccc1CCO [compound 63],1.21,–
CC1=C(C(=O)Nc2ccccc2C(C)S(=O)(=O)C(C)C)SCCO1 (stereo not drawn) [compound 2],2.07,–
CCC(C)SC(C)c1ccccc1NC(=O)c1cn(C)nc1C(F)F (stereo not drawn) [compound 80],3.38,–
CC(C)S(=O)(=O)C(C)c1ccccc1NC(=O)c1cn(C)nc1C(F)F (stereo not drawn) [compound 16],1.86,–
CCC(C)SC(C)c1ccccc1NC(=O)c1sc(C)nc1C(F)(F)F (mixture of isomers) [compound 48],4.12,–
CCC(C)SC(C)c1ccccc1NC(=O)C1=C(C)OCCS1 (stereo not drawn) [compound 89],4.10,–
Cc1nc(C(F)(F)F)c(C(=O)Nc2ccccc2C(C)OC(C)C)s1 (stereo not drawn) [compound 133],3.65,–
Cn1cc(C(=O)Nc2ccccc2CCOC(=O)C(Cl)Cl)c(C(F)(F)F)n1 [compound 66],2.76,–
CC(C)S(=O)(=O)C(C)c1ccccc1NC(=O)c1ccccc1Br (stereo not drawn) [compound 3],2.30,–
"Cc1nn(C)c(F)c1C(=O)Nc1ccccc1C(C)NC(C)C (stereo not drawn) [Compound No. 40, 5-fluoro-N-{2-[1-(isopropylamino)ethyl]phenyl}-1,3-dimethyl-1H-pyrazole-4-carboxamide]",–,0.58
CC(C)OC(C)c1ccccc1NC(=O)c1ccccc1C(F)(F)F (stereo not drawn) [compound 134],3.81,–
Cc1nn(C)c(F)c1C(=O)Nc1ccccc1CCOC(=O)C(C)C [compound 67],2.40,–
CCCC(C)SC(C)c1ccccc1NC(=O)c1ccccc1Br (stereo not drawn) [compound 81],4.63,–
CC(C)C(=O)OCc1ccccc1NC(=O)c1cn(C)nc1C(F)(F)F [compound 55],2.74,–
CCCC(C)SC(C)c1ccccc1NC(=O)c1ccccc1Cl (stereo not drawn) [compound 72],4.60,–
Cc1nc(C(F)(F)F)c(C(=O)Nc2ccccc2C(C)S(=O)(=O)C(C)C)s1 (stereo not drawn) [compound 9],2.35,–
CCC(C)SC(C)c1ccccc1NC(=O)c1sc(C)nc1C(F)F (stereo not drawn) [compound 78],3.95,–
CC(C)S(=O)(=O)C(C)c1ccccc1NC(=O)c1ccccc1I (stereo not drawn) [compound 7],2.43,–
CC(C)SC(C)c1ccccc1NC(=O)c1ccccc1C(F)(F)F (stereo not drawn) [compound 23],3.90,–

SMILES,logP (pH 2.3),chromatographic logP
CC(C)SC(C)c1ccccc1NC(=O)c1ccccc1Cl (stereo not drawn) [compound 21],3.74,–
"CC(C)OCc1ccccc1NC(=O)c1cn(C)nc1C(F)(F)F [Compound No. 60, N-[2-(isopropoxymethyl)phenyl]-1-methyl-3-(trifluoromethyl)-1H-pyrazol-4-carboxamide]",–,2.85
CCCC(C)SC(C)c1ccccc1NC(=O)c1c(C)nn(C)c1F (mixture of isomers) [compound 43],3.82,–
CC(C)C(=O)OCCc1ccccc1NC(=O)c1cn(C)nc1C(F)(F)F [compound 64],2.79,–
CC(SC1CCCC1)c1ccccc1NC(=O)c1ccccc1C(F)(F)F (stereo not drawn) [compound 97],4.41,–
"CC(C)SC(C)c1ccccc1N (stereo not drawn) [III-1, 2-[1-(isopropylthio)ethyl]aniline]",–,2.45
CC(C)S(=O)(=O)C(C)c1ccccc1NC(=O)c1cn(C)nc1C(F)(F)F (stereo not drawn) [compound 15],2.09,–
"CC(C)NC(C)c1ccccc1N (stereo not drawn) [III-4, 2-[1-(isopropylamino)ethyl]aniline]",–,0.05
Cc1nc(C(F)F)c(C(=O)Nc2ccccc2CSC(C)C)s1 [compound 35],3.27,–
Cc1sccc1C(=O)Nc1ccccc1C(C)S(=O)(=O)C(C)C (stereo not drawn) [Compound No. 4],2.38,–
Cc1occc1C(=O)Nc1ccccc1C(C)OC(C)C (stereo not drawn) [compound 126],3.80,–
CC(C)SC(C)c1ccccc1NC(=O)c1cccnc1Cl (stereo not drawn) [compound 22],2.95,–
"CC(C)S(=O)(=O)Cc1ccccc1[N+](=O)[O-] [VI-3, 1-[(isopropylsulfonyl)methyl]-2-nitrobenzene]",–,1.63
CCCC(C)SC(C)c1ccccc1NC(=O)c1sc(C)nc1C(F)F (stereo not drawn) [compound 79],4.36,–
Cc1nn(C)c(F)c1C(=O)Nc1ccccc1CCOC(=O)C(Cl)Cl [compound 68],2.43,–
CCCC(C)SC(C)c1ccccc1NC(=O)c1c(C(F)(F)F)nn(C)c1F (racemic) [compound 111],4.38,–
CC1=C(C(=O)Nc2ccccc2C(C)OC(C)C)SCCO1 (stereo not drawn) [compound 128],3.47,–
CCCC(C)SC(C)c1ccccc1NC(=O)c1cn(C)cc1C(F)(F)F (racemic) [compound 109],4.29,–
